Data set [1] has as its system PDE4. Briefly: Inhibition of PDE4 activity (cytosol from human neutrophils, [3H]cAMP hydrolysis). Type of data set: biochemical. The conditions noted are these: 0.5 μM cAMP, Motapizone (1 μM) included to suppress PDE3 activity. The procedure: Method for Measuring Inhibition of PDE4 Activity
PDE4 activity was determined as described by Thompson et al. (Adv Cycl Nucl Res 10: 69-92, 1979) with some modifications (Bauer and Schwabe, Naunyn-Schmiedeberg's Arch Pharmacol 311: 193-198, 1980). At a final assay volume of 200 μl (96 well microtiter plates) the assay mixture contained 20 mM Tris (pH 7.4), 5 mM MgCl2, 0.5 μM cAMP, [^3H]cAMP (about 30,000 cpm/assay), the test compound and an aliquot of cytosol from human neutrophils which mainly contains PDE4 activity as described by Schudt et al. (Naunyn-Schmiedeberg's Arch Pharmacol 344: 682-690, 1991); the PDE3-specific inhibitor Motapizone (1 μM) was included to suppress PDE3 activity originating from contaminating platelets. Serial dilutions of the compounds were prepared in DMSO and further diluted 1:100 (v/v) in the assays to obtain the desired final concentrations of the inhibitors at a DMSO concentration of 1 % (v/v) which by itself only slightly affected PDE4 activity.
After preincubation for 5 min at 37° C., the reaction was started by the addition of substrate (cAMP) and the assays were incubated for further 15 min at 37° C. 50 μl of 0.2 N HCl was added to stop the reaction and the assays were left on ice for about 10 min. Following incubation with 25 μg 5′-nucleotidase (Crotalus atrox snake venom) for 10 min at 37° C., the assays were loaded on QAE Sephadex A-25 (1 ml bed volume). The columns were eluted with 2 ml of 30 mM ammonium formiate (pH 6.0) and the eluate was counted for radioactivity. Results were corrected for blank values (measured in the presence of denatured protein) which were below 5% of total radioactivity. […] The IC50-values for the compounds according to the invention for the inhibition of the PDE4 activity were determined from the concentration-inhibition curves by nonlinear-regression.
The inhibitory values determined for the compounds according to the invention follow from the following table A, which the numbers of the compounds correspond to the numbers of the examples.

`COc1ccc(C2=NN(C3CC[N+]([O-])(CC(N)=O)CC3)C(=O)C3CCCCC23)cc1OC` (stereo not drawn) [compound 3] registered a melting point of 176 to 177 °C. Moreover, the “Inhibition of PDE4 acitivity [measured as −logIC50 (mol/l)]” value in data set [1] is listed as 7.5.

In the case of `COc1ccc(C2=NN(C3CC[N+]([O-])(CC(=O)NC(C)C)CC3)C(=O)C3CC=CCC23)cc1OC` [compound 2, 2-{4-[(4aS,8aR)-4-(3,4-Dimethoxy-phenyl)-1-oxo-4a,5,8,8a-tetrahydro-1H-phthalazin-2yl]-1-oxy-piperidin-1-yl}-N-isopropyl-acetamide], the melting point was 130 to 132 °C. Moreover, the “Inhibition of PDE4 acitivity [measured as −logIC50 (mol/l)]” value in data set [1] is on record as 9.3.

`COc1ccc(C2=NN(C3CC[N+]([O-])(CC(N)=O)CC3)C(=O)C3CC=CCC23)cc1OC` [compound 1, 2-{4-[(4aS,8aR)-4-(3,4-Dimethoxy-phenyl)-1-oxo-4a,5,8,8a-tetrahydro-1H-phthalazin-2-yl]-1-oxy-piperidin-1-yl}-acetamide] returned a melting point of 159 to 161 °C. The “Inhibition of PDE4 acitivity [measured as −logIC50 (mol/l)]” value in data set [1] amounted to 8.31.

Source of the values: US20060166995A1, “Piperidine-n-oxide-derivatives” (ALTANA PHARMA AG, priority 2002, published 2006).
